# Reference: patent US20220000872A1, “METHOD OF ENHANCING IMMUNE-BASED THERAPY” (OncoTracker, Inc., priority 2018, published 2022)
# “Also recorded” adds a separate entry of the source.
# Legend:
# PD-L1 gene expression = PD-L1 gene expression (qPCR) in MM BMMCs co-cultured with THP-1 monocytes; assay type: cell-based, human; conditions: BMMCs from MM patient #3041 co-cultured with THP-1 monocytes, RUX 1 μM, 48 hours
# Experimental: (§1) MM patient #3041 bone marrow mononuclear cells were co-cultured with THP-1 monocytes with or without RUX (from […] to 10 μM) for 48 hours.
# (§2) Next, we investigated the effects of ruxolitinib (RUX) on PD-L1 and PD-L2 gene expression in MM bone marrow mononuclear cells (BMMCs) co-cultured with THP-1 monocytes. THP-1 monocytes co-cultured with primary BMMCs from MM patient #3041 were grown in the presence or absence of RUX (1 μM).
# IL-2 gene expression = IL-2 gene expression (qPCR) in BMMCs from three MM patients; assay type: cell-based, human; conditions: RUX 1 μM, 24 hours
# Experimental: BMMCs from three MM patients were treated with RUX (1 μM) for 24 hours with or without co-culture with T cells in vitro. IL-2 gene expression levels were determined using qPCR RUX induced IL-2 expression in BMMCs alone and those co-cultured with T cells (SUP-T1, ATCC) in Trans-well culture dishes.
# B7-H3 gene expression = B7-H3 gene expression (qPCR) in MM BMMCs, U266 cells and THP-1 monocytes; assay type: cell-based, human; conditions: RUX 1 μM
# Experimental: We further examined BMMCs from two MM patients (#s 2188 and 2935) treated with RUX (1 μM) for 24 hours. RUX reduced B7-H3 gene expression as measured using qPCR in BMMCs (FIG. 7B). We also analyzed BMMCs co-cultured with stromal cells. B7-H3 gene expression was increased 16-fold in BMMCs after these cells were co-cultured with stromal cells. […] We further determined the effect of RUX (1 μM) on gene expression of B7-H3 in the MM cell line U266 co-cultured with THP-1 monocytes (T) after 48 hours. RUX at 1 μM reduced B7-H3 expression in both U266 MM cells and THP-1 monocytes, cultured alone or co-cultured, compared to cell cultures not treated with RUX (FIG. 7D).
# [1] = tested on: PD-L1 gene and protein expression; experiment: PD-L1 gene and protein expression in MM tumor cells alone or co-cultured with stromal cells (Example 11); assay type: cell-based, human; conditions: concentration dependent pattern
# Experimental: BM mononuclear cells (MCs) and serum were collected from MM patients and healthy subjects after obtaining IRB approval. Single-cell suspensions were prepared from human MM LAGκ-1A xenografts which had been grown in the mice. The cells were cultured and treated with or without RUX and then were determined by qPCR, flow cytometric analysis, ELISA, and western blot.
# (§3) We further investigated the effects of RUX on PD-L1 and PD-L2 expression in primary and stromal cells from MM patients' BM samples in vitro. […] We then determined whether RUX can augment the anti-MM effects of T-cells in vitro. […] To evaluate the efficacy of drugs in vivo, severe combined immune deficient mice implanted with the human MM xenograft LAGκ-2 were treated with RUX (30 mg/kg).
# PD-L2 gene expression = PD-L2 gene expression (qPCR) in MM BMMCs co-cultured with THP-1 monocytes; assay type: cell-based, human; conditions: BMMCs from MM patient #3041 co-cultured with THP-1 monocytes, RUX 1 μM, 48 hours
# Experimental: as §1, §2
# [2] = tested on: PD-L1 expression in the xenograft; experiment: PD-L1 expression in human MM xenograft LAGκ-2 in severe combined immune deficient mice; assay type: in vivo; conditions: LAGκ-2 in SCID mice; RUX 30 mg/kg; vs untreated control group
# Experimental: as §3
# [3] = tested on: CD138+ myeloma tumor cells; experiment: Annexin V apoptosis assay of CD138-selected primary myeloma cells co-cultured with IL-2-stimulated T-cells; assay type: cell-based, human; conditions: CD138+ cells with IL-2-stimulated SUP-T1 T cells; 72 hours; RUX at varying concentrations; rose from approximately 35% up to this value, concentration dependent
# Experimental: FIG. 10A depicts an apoptosis assay of fresh CD138-selected myeloma tumor cells combined with IL-2-stimulated T-cells (SUP-T1, ATCC) and treated with ruxolitinib (RUX) in vitro. T-cells were pre-treated with IL-2 (20 ng/ml) for 24 hours. Primary myeloma cells were CD138-selected using an immunoadsorption column and co-cultured with T cells with or without RUX at varying concentrations for 72 hours. Apoptosis in CD138+ cells was measured using the Annexin V assay per the manufacturer's protocol (Biovision) followed with flow cytometric analysis (FC-500 cytometer using Cytometrics CXP software, both Beckman Coulter). Minimal apoptosis was observed without T cells. Apoptosis occurred in a much higher proportion of myeloma tumor cells exposed to IL-2-stimulated T cells (FIG. 10A). RUX increased the fraction of cells that underwent apoptosis from approximately 35% up to about 65% in a concentration dependent fashion.
# [4] = tested on: Tumor cells from the LAGκ-1A human MM xenograft; experiment: Annexin V apoptosis assay of LAGκ-1A myeloma tumor cells with or without IL-2 pre-treated T-cells; assay type: cell-based; conditions: in the absence of T-cells
# Experimental: T-cells (SUP-T1, ATCC) were pre-treated with IL-2 (20 ng/ml) for 24 hours. In the RUX at 1 μM with anti-PD-L1 group, the antibody concentrations were varied as indicated on the x-axis but the RUX was tested at a fixed concentration (1 μM). For the anti-PD-L1 at 5 mg/mL with RUX group, the RUX concentrations were varied as on the x-axis but the anti-PD-L1 antibody was evaluated at a fixed concentration (5 mg/mL). Tumor cells from the LAGκ-1A human MM xenograft were single-cell suspended and co-cultured with T cells treated with either RUX (1 μM) and anti-PD-L1 antibody or RUX alone for 72 hours. Tumor cell apoptosis was measured using the Annexin V assay per the manufacturer's protocol (Biovision) followed with flow cytometric analysis (FC-500 cytometer using Cytometric CXP software, both Beckman Coulter).
# T-cells were pre-treated with IL-2 (20 ng/ml) for 24 hours. […] For the anti-PD-1 at 5 mg/mL with RUX group, the RUX concentrations were varied as on the x-axis but the anti-PD-1 antibody was evaluated at a fixed concentration (5 mg/mL). […] Tumor cell apoptosis was measured using the Annexin V assay per the manufacturer's protocol (Biovision) followed with flow cytometric analysis (FC-500 cytometer using Cytometric CXP software, both Beckman Coulter). […]
# [5] = tested on: PD-1 expression on T-cells; experiment: PD-1 expression on T-cells (Example 11); assay type: cell-based
compound,measurement,setting,value
"N#CC[C@H](C1CCCC1)n1cc(-c2ncnc3[nH]ccc23)cn1 [RUX, ruxolitinib]",PD-L1 gene expression in MM BMMCs,PD-L1 gene expression,marked decrease; also recorded: inhibits
same,IL-2 expression in BMMCs alone,IL-2 gene expression,induced; also recorded: increased
same,IL-2 expression in BMMCs co-cultured with T cells,IL-2 gene expression; SUP-T1 in Trans-well dishes,induced
same,B7-H3 gene expression in BMMCs,"B7-H3 gene expression; BMMCs from two MM patients (#2188, #2935), 24 hours, qPCR",reduced; also recorded: down-regulates
same,B7-H3 expression in BMMCs co-cultured with stromal cells,B7-H3 gene expression,markedly reduced; also recorded: decreases
same,B7-H3 expression in U266 MM cells,"B7-H3 gene expression; cultured alone or co-cultured with THP-1, 48 hours",reduces
same,B7-H3 expression in THP-1 monocytes,"B7-H3 gene expression; cultured alone or co-cultured with U266, 48 hours",reduced
same,PD-L1 gene and protein expression in MM tumor cells,[1],markedly reduced
same,PD-L2 gene expression in MM BMMCs,PD-L2 gene expression,marked decrease; also recorded: inhibits
same,PD-L1 expression in the xenograft,[2],significantly decreased
same,fraction of cells that underwent apoptosis,[3],about 65%
same,"apoptosis of LAGκ-1A cells, single-agent treatment",[4],does not lead to significant apoptosis
same,PD-1 expression on T-cells,[5],no effect
